Measurements reported in paper PMC5673977, “Transport Deficiency Is the Molecular Basis of Candida albicans Resistance to Antifungal Oligopeptides” (Frontiers in Microbiology, 2017).
Values after ≈ are worked out from the molar mass of the structure shown. Where a SMILES comes first, the peptide text is derived from it. [ ]: non-standard residue; d: D form. The star is where a group is joined. Fumaryl(OMe) = COC(=O)/C=C/C(=O)*; Dap = NC[C@H](N)C(=O)O

Tests used:
Assay type in all cases: cell-based, Candida albicans
C. albicans SC5314 = assay: Initial peptide uptake rate; details: SC 5314; cells grown in YNB-SG; 50 mM potassium phosphate buffer (pH 5.0 or 6.5) + 1% glucose, 30°C, 100 μM peptide, residual peptide by TNBS A420, slope 0- to 10-min
Method: (§1) Yeast cells grown exponentially in the YNB-SG medium were harvested by centrifugation (3000 ×g, 5 min), washed with 50 mM potassium phosphate buffer (pH 5.0 or 6.5), and suspended in the same buffer containing 1% glucose, to a final cell density corresponding to A660 ≅ 1.0. The cell suspension was incubated at 30°C. After 10 min, an oligopeptide solution was added, to give a final concentration of 100 μM. At that moment and at 5 min intervals thereafter, 2 mL samples of the cell suspension were withdrawn, immediately filtered through the Whatman GF/A filters and the filtrates were used to determine the residual peptide concentration. Then, the 1 mL portions of the filtrates were taken and combined with 1.25 mL aliquots of a solution containing 4% Na2B4O7 × 10 H2O and 0.8 mg mL^-1 of 2,4,6-trinitrobenzenesulfonate. The reaction was carried out at 37°C for 30 min. The A420 values were measured and the peptide concentration was read from the appropriate standard curve. Data were plotted as nanomoles of an oligopeptide, taken up by 1 mg (dry weight) of cells versus time. The initial uptake velocities were determined from the slopes of the linear part of the curves, in the 0- to 10-min region.

C. albicans opt1Δ = assay: Initial peptide uptake rate; details: 50 mM potassium phosphate buffer (pH 5.0 or 6.5) + 1% glucose, 30°C, 100 μM peptide, TNBS A420, slope 0- to 10-min
Method: as §1

[1] = tested on: C. albicans opt1–opt5Δ ptr2Δ ptr22Δ; assay: Initial peptide uptake rate; details: 50 mM potassium phosphate buffer (pH 5.0 or 6.5) + 1% glucose, 30°C, 100 μM peptide, TNBS A420, slope 0- to 10-min
Method: as §1

C. albicans opt1–opt5Δ = assay: Initial peptide uptake rate; details: 50 mM potassium phosphate buffer (pH 5.0 or 6.5) + 1% glucose, 30°C, 100 μM peptide, TNBS A420, slope 0- to 10-min
Method: as §1

C. albicans opt2Δ opt3Δ = assay: Initial peptide uptake rate; details: 50 mM potassium phosphate buffer (pH 5.0 or 6.5) + 1% glucose, 30°C, 100 μM peptide, TNBS A420, slope 0- to 10-min
Method: as §1

C. albicans opt4Δ = assay: Initial peptide uptake rate; details: 50 mM potassium phosphate buffer (pH 5.0 or 6.5) + 1% glucose, 30°C, 100 μM peptide, TNBS A420, slope 0- to 10-min
Method: as §1

C. albicans opt5Δ = assay: Initial peptide uptake rate; details: 50 mM potassium phosphate buffer (pH 5.0 or 6.5) + 1% glucose, 30°C, 100 μM peptide, TNBS A420, slope 0- to 10-min
Method: as §1

C. albicans ptr2Δ ptr22Δ = assay: Initial peptide uptake rate; details: 50 mM potassium phosphate buffer (pH 5.0 or 6.5) + 1% glucose, 30°C, 100 μM peptide, TNBS A420, slope 0- to 10-min
Method: as §1

C. albicans isolate LNF1 = details: YNB-SG medium
Description: (§2) The in vitro growth inhibitory activity of antifungals was quantified by determination of minimal inhibitory concentration (MIC) values by the serial twofold dilution method, using the 96-well microtiter plates in three media: buffered RPMI-1640, YNB-AS, and YNB-SG. Conditions of the RPMI-1640-based assay were the same as outlined in the CLSI recommendations ([Clinical Laboratory Standards Institute, 2008]), except for the end-point readout that was done by spectrophotometric determination of cell density at 531 nm. Turbidity in individual wells was measured with a microplate reader (Victor^3; Perkin Elmer). MIC was defined as the lowest drug concentration that gave at least an 80% decrease in turbidity, relative to that of the drug-free growth control.
(§3) The 96-well microtiter plates were also used for determination of in vitro growth inhibitory activity in YPD and YNB-based media. Individual wells were inoculated with 5 × 10^3 cfu mL^-1 of C. albicans cells from the overnight culture in YPD medium. The inoculated plates were incubated 37°C for 24 h and then turbidity was measured with a microplate reader at 531 nm, as described above for the RPMI-1640-based assay.
(§4) Candida albicans cells, apparently resistant to FMDP-peptides, were isolated from the individual colonies formed on the surface of YNB-SG agar medium containing FMDP-peptide, 10 μg mL^-1 or within the growth inhibitory zones around the paper discs saturated with 10 μL of the FMDP-peptide solution, 1 mg mL^-1. In both versions, the agar surface was inoculated with 10^5 cells from the overnight culture in YPD medium, washed three times with sterile water, suspended in 0.2 mL of sterile water and the cell suspension was spread on the whole surface with a sterile glass rod. Plates were incubated for 48 h at 30°C and isolated colonies were picked with a platinum loop.
(§5) Growth inhibitory activity of FMDP-oligopeptides against C. albicans SC 5314 was also determined by the disc diffusion method. […] Cells grown in these colonies were collected, re-grown in YNB-AS and tested for sensitivity to FMDP-oligopeptides.

C. albicans isolate LNF2 = details: YNB-SG medium
Description: as §2, §3, §4, §5

C. albicans isolate LNF3 = details: YNB-SG medium
Description: as §2, §3, §4, §5

C. albicans isolate NF1 = details: YNB-SG medium
Description: as §2, §3, §4, §5

C. albicans isolate NF2 = details: YNB-SG medium
Description: as §2, §3, §4, §5

[2] = tested on: C. albicans isolates NF1-3 and LNF1-3; assay: Initial peptide uptake rate by isolates resistant to F2/F3; details: all six isolates NF1-3, LNF1-3; Figure 4
Method: as §1
It is therefore clear that the diminished sensitivity of all six isolates to F2 and F3 was due to the reduced uptake, most likely by permease(s) of the PTR system.

For `COC(=O)/C=C/C(=O)NC[C@H](N)C(=O)N[C@@H](CCCNC(=N)N)C(=O)N[C@@H](CCCCN)C(=O)N[C@@H](CCCCN)C(=O)N[C@@H](Cc1c[nH]c2ccccc12)C(=O)N[C@@H](Cc1ccccc1)C(=O)N[C@@H](Cc1c[nH]c2ccccc12)C(=O)O` [Peptide F7, FMDP-Arg-Lys-Lys-Trp-Phe-Trp] (H-[Dap](Fumaryl(OMe))RKKWFW-OH; N-terminus and C-terminus assumed), the “Uptake rate ± SD” value (C. albicans SC5314) was 2.40 ± 0.16 nmol min^-1 (mg dry weight)^-1, the “Uptake rate ± SD” value (C. albicans opt1Δ) was 1.70 ± 0.12 nmol min^-1 (mg dry weight)^-1 and the “Uptake rate ± SD” value [1] was 0.23 ± 0.02 nmol min^-1 (mg dry weight)^-1. For the same compound, the “Uptake rate ± SD” value (C. albicans opt1–opt5Δ) was 0.32 ± 0.07 nmol min^-1 (mg dry weight)^-1, the “Uptake rate ± SD” value (C. albicans opt2Δ opt3Δ) was 0.46 ± 0.08 nmol min^-1 (mg dry weight)^-1 and the “Uptake rate ± SD” value (C. albicans opt4Δ) was 1.85 ± 0.12 nmol min^-1 (mg dry weight)^-1. For the same compound, the “Uptake rate ± SD” value (C. albicans opt5Δ) was 1.44 ± 0.10 nmol min^-1 (mg dry weight)^-1, the “Uptake rate ± SD” value (C. albicans ptr2Δ ptr22Δ) was 2.22 ± 0.16 nmol min^-1 (mg dry weight)^-1 and the MIC (C. albicans isolate LNF1) was 16 µg/mL (≈ 13.9 µM). It also gave an MIC (C. albicans isolate LNF2) of 16 µg/mL (≈ 13.9 µM), an MIC (C. albicans isolate LNF3) of 16 µg/mL (≈ 13.9 µM) and an MIC (C. albicans isolate NF1) of 16 µg/mL (≈ 13.9 µM). The MIC (C. albicans isolate NF2) was 16 µg/mL (≈ 13.9 µM).
With `COC(=O)/C=C/C(=O)NC[C@H](N)C(=O)N[C@@H](CCCCN)C(=O)N[C@@H](CCCCN)C(=O)N[C@H](C(=O)N[C@H](C(=O)N[C@@H](Cc1ccccc1)C(=O)N[C@@H](Cc1c[nH]c2ccccc12)C(=O)N[C@H](C(=O)N[C@@H](CCCCN)C(=O)N[C@@H](Cc1ccccc1)C(=O)N[C@@H](CCCCN)C(=O)O)C(C)C)C(C)C)C(C)C` [Peptide F11, FMDP-Lys-Lys-Val-Val-Phe-Trp-Val-Lys-Phe-Lys] (H-[Dap](Fumaryl(OMe))KKVVFWVKFK-OH; N-terminus assumed) the “Uptake rate ± SD” value (C. albicans SC5314) was 2.25 ± 0.15 nmol min^-1 (mg dry weight)^-1, the “Uptake rate ± SD” value (C. albicans opt1Δ) was 1.64 ± 0.11 nmol min^-1 (mg dry weight)^-1 and the “Uptake rate ± SD” value [1] was 0.18 ± 0.02 nmol min^-1 (mg dry weight)^-1. The “Uptake rate ± SD” value (C. albicans opt2Δ opt3Δ) was 0.22 ± 0.03 nmol min^-1 (mg dry weight)^-1, the “Uptake rate ± SD” value (C. albicans opt4Δ) was 1.77 ± 0.18 nmol min^-1 (mg dry weight)^-1 and the “Uptake rate ± SD” value (C. albicans opt5Δ) was 1.92 ± 0.18 nmol min^-1 (mg dry weight)^-1. The “Uptake rate ± SD” value (C. albicans ptr2Δ ptr22Δ) was 2.28 ± 0.15 nmol min^-1 (mg dry weight)^-1, the MIC (C. albicans isolate LNF1) was 16 µg/mL (≈ 10.6 µM) and the MIC (C. albicans isolate LNF2) was 32 µg/mL (≈ 21.2 µM). For the same compound, the MIC (C. albicans isolate LNF3) was 16 µg/mL (≈ 10.6 µM), the MIC (C. albicans isolate NF1) was 16 µg/mL (≈ 10.6 µM) and the MIC (C. albicans isolate NF2) was 32 µg/mL (≈ 21.2 µM).
For `COC(=O)/C=C/C(=O)NC[C@H](NC(=O)[C@H](CCSC)NC(=O)[C@@H](NC(=O)[C@@H]1CCCN1C(=O)[C@H](CC(C)C)NC(=O)[C@@H](N)CCCCN)C(C)C)C(=O)O` [Peptide F6, Lys-Leu-Pro-Val-Met-FMDP] (H-KLPVM[Dap](Fumaryl(OMe))-OH; N-terminus and C-terminus assumed), the “Uptake rate ± SD” value (C. albicans SC5314) was 3.12 ± 0.20 nmol min^-1 (mg dry weight)^-1, the “Uptake rate ± SD” value (C. albicans opt1Δ) was 2.08 ± 0.15 nmol min^-1 (mg dry weight)^-1 and the “Uptake rate ± SD” value [1] was 0.18 ± 0.03 nmol min^-1 (mg dry weight)^-1. The “Uptake rate ± SD” value (C. albicans opt1–opt5Δ) was 0.22 ± 0.04 nmol min^-1 (mg dry weight)^-1, the “Uptake rate ± SD” value (C. albicans opt2Δ opt3Δ) was 0.56 ± 0.09 nmol min^-1 (mg dry weight)^-1 and the “Uptake rate ± SD” value (C. albicans opt4Δ) was 2.99 ± 0.11 nmol min^-1 (mg dry weight)^-1. For the same compound, the “Uptake rate ± SD” value (C. albicans opt5Δ) was 2.03 ± 0.15 nmol min^-1 (mg dry weight)^-1, the “Uptake rate ± SD” value (C. albicans ptr2Δ ptr22Δ) was 3.00 ± 0.25 nmol min^-1 (mg dry weight)^-1 and the MIC (C. albicans isolate LNF1) was 4 µg/mL (≈ 5.1 µM). For the same compound, the MIC (C. albicans isolate LNF2) was 8 µg/mL (≈ 10.2 µM), the MIC (C. albicans isolate LNF3) was 4 µg/mL (≈ 5.1 µM) and the MIC (C. albicans isolate NF1) was 4 µg/mL (≈ 5.1 µM). For the same compound, the MIC (C. albicans isolate NF2) was 4 µg/mL (≈ 5.1 µM) and the “Initial uptake rate relative to wild type SC5314 cells” value [2] was “nearly the same or even somewhat higher”.
